Laboratory results from patent US11155544B2, “Heterocycle comprising tyrosine kinase inhibitors” (Principia Biopharma Inc., priority 2015, dated 2021).

Biological target: human recombinant BTK (Homo sapiens (Human), UniProt Q06187)
Assay: BTK Enzymatic Activity Assay (Caliper-based kinase assay)
Assay type: biochemical
Conditions: human recombinant BTK (0.5 nM), ATP (16 μM), peptide substrate (1 μM), room temperature for 3 h
Description: A Caliper-based kinase assay (Caliper Life Sciences, Hopkinton, Mass.) was used to measure inhibition of BTK kinase activity of a compound of the present disclosure. Serial dilutions of test compounds were incubated with human recombinant BTK (0.5 nM), ATP (16 μM) and a phosphoacceptor peptide substrate FAM-GEEPLYWSFPAKKK-NH2 (1 μM) at room temperature for 3 h. The reaction was then terminated with EDTA, final concentration 20 mM and the phosphorylated reaction product was quantified on a Caliper Desktop Profiler (Caliper LabChip 3000). Percent inhibition was calculated for each compound dilution and the concentration that produced 50% inhibition was calculated. This value is presented as the IC50.

Sequence of human recombinant BTK (Q06187 whole entry): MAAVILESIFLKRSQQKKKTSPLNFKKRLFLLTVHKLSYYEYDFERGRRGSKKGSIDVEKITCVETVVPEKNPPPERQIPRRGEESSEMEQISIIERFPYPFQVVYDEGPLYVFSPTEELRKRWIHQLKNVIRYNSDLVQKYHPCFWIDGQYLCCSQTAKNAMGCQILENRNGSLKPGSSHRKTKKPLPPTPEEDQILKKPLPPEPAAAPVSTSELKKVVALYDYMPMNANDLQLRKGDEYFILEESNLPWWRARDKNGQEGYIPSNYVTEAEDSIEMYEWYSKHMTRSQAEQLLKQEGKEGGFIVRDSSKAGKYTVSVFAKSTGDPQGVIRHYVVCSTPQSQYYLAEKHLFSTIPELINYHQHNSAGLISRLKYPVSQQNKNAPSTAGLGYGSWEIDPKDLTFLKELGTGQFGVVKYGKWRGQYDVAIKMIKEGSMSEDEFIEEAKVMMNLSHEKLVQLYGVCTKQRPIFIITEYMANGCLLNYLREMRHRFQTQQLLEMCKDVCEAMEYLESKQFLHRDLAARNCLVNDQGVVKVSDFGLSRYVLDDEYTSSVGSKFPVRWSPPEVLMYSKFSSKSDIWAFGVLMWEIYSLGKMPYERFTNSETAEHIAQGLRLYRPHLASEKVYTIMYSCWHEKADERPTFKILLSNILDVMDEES

| Structure (SMILES) | IC50 [nM] |
| --- | --- |
| CC(C)(C=C(C#N)C(=O)N1CCC[C@@H](c2nc(-c3ccc(Oc4ccccc4)cc3)c3c(N)nccn23)C1)N1CCN(C2COC2)CC1 [Compound 35, (R)-2-(3-(8-amino-1-(4-phenoxyphenyl)imidazo[1,5-a]pyrazin-3-yl)piperidine-1-carbonyl)-4-methyl-4-(4-(oxetan-3-yl)piperazin-1-yl)pent-2-enenitrile] | 2.1 |
| CN1CCN(C(C)(C)C=C(C#N)C(=O)N2CCC[C@H]2Cn2nc(-c3ccc(Oc4ccccc4)cc3F)c3c(N)nccc32)CC1=O [Compound 32, (S)-2-(2-((4-amino-3-(2-fluoro-4-phenoxyphenyl)-1H-pyrazolo[4,3-c]pyridin-1-yl)methyl)pyrrolidine-1-carbonyl)-4-methyl-4-(4-methyl-3-oxopiperazin-1-yl)pent-2-enenitrile] | 8.9 |
| CC(C)(C=C(C#N)C(=O)N1CCC[C@@H](c2nc(-c3ccc(Oc4ccccc4)cc3F)c3c(N)nccn23)C1)N1CCN2C(=O)CC[C@H]2C1 [Compound 62, 2-((R)-3-(8-amino-1-(2-fluoro-4-phenoxyphenyl)imidazo[1,5-a]pyrazin-3-yl)piperidine-1-carbonyl)-4-methyl-4-((S)-6-oxohexahydropyrrolo[1,2-a]pyrazin-2(1H)-yl)pent-2-enenitrile] | 2.2 |
| CC(C)(C=C(C#N)C(=O)N1CCC[C@@H](c2nc(-c3ccc(Oc4ccccc4)cc3F)c3c(N)nccn23)C1)N1CCN2C(=O)CC[C@@H]2C1 [Compound 63, 2-((R)-3-(8-amino-1-(2-fluoro-4-phenoxyphenyl)imidazo[1,5-a]pyrazin-3-yl)piperidine-1-carbonyl)-4-methyl-4-((R)-6-oxohexahydropyrrolo[1,2-a]pyrazin-2(1H)-yl)pent-2-enenitrile] | 0.9 |
| CC1(C=C(C#N)C(=O)N2CCC[C@@H](n3nc(-c4ccc(Oc5ccccc5)cc4)c4c(N)nccc43)C2)CCOCC1 [Compound 43, (R)-2-(3-(4-amino-3-(4-phenoxyphenyl)-1H-pyrazolo[4,3-c]pyridin-1-yl)piperidine-1-carbonyl)-3-(4-methyltetrahydro-2H-pyran-4-yl)acrylonitrile] | 2 |
| CN1CCN(C(=O)C(C#N)=CC2(C)CCOCC2)C[C@@H]1c1nc(-c2ccc(Oc3ccccc3)cc2)c2c(N)nccn12 [Compound 67, (R)-2-(3-(8-amino-1-(4-phenoxyphenyl)imidazo[1,5-a]pyrazin-3-yl)-4-methylpiperazine-1-carbonyl)-3-(4-methyltetrahydro-2H-pyran-4-yl)acrylonitrile] | 0.2 |
| CCN1CCN(C(C)(C)C=C(C#N)C(=O)N2CCC[C@@H](n3nc(-c4ccc(Oc5ccccc5)cc4)c4c(N)nccc43)C2)CC1=O [Compound 41, (R)-2-(3-(4-amino-3-(4-phenoxyphenyl)-1H-pyrazolo[4,3-c]pyridin-1-yl)piperidine-1-carbonyl)-4-(4-ethyl-3-oxopiperazin-1-yl)-4-methylpent-2-enenitrile] | 2.4 |
| CC(C)(C=C(C#N)C(=O)N1CCC[C@H]1Cn1nc(-c2ccc(C(=O)Nc3ccccn3)cc2)c2c(N)nccc21)N1CCN(C2COC2)CC1 [Compound 15, (S)-4-(4-amino-1-((1-(2-cyano-4-methyl-4-(4-(oxetan-3-yl)piperazin-1-yl)pent-2-enoyl)pyrrolidin-2-yl)methyl)-1H-pyrazolo[4,3-c]pyridin-3-yl)-N-(pyridin-2-yl)benzamide] | 22.4 |
| CC(C)(C=C(C#N)C(=O)N1CCC[C@@H](n2nc(-c3ccc(Oc4ccccc4)cc3)c3c(N)nccc32)C1)N1CCN(C2COC2)CC1 [Compound 34, (R)-2-(3-(4-amino-3-(4-phenoxyphenyl)-1H-pyrazolo[4,3-c]pyridin-1-yl)piperidine-1-carbonyl)-4-methyl-4-(4-(oxetan-3-yl)piperazin-1-yl)pent-2-enenitrile] | 1.9 |
| CC(C)(C=C(C#N)C(=O)N1CCC[C@@H](n2nc(-c3ccc(Oc4cccc(F)c4F)cc3)c3c(N)nccc32)C1)N1CCN(C2COC2)CC1 [Compound 29, (R)-2-(3-(4-amino-3-(4-(2,3-difluorophenoxy)phenyl)-1H-pyrazolo[4,3-c]pyridin-1-yl)piperidine-1-carbonyl)-4-methyl-4-(4-(oxetan-3-yl)piperazin-1-yl)pent-2-enenitrile] | 0.8 |
| CC1(C=C(C#N)C(=O)N2CCC[C@@H](n3nc(-c4ccc(Oc5ccccc5)cc4F)c4c(N)nccc43)C2)CCN(C2COC2)CC1 [Compound 49, (R)-2-(3-(4-amino-3-(2-fluoro-4-phenoxyphenyl)-1H-pyrazolo[4,3-c]pyridin-1-yl)piperidine-1-carbonyl)-3-(4-methyl-1-(oxetan-3-yl)piperidin-4-yl)acrylonitrile] | 1.8 |
| CC(C)(C=C(C#N)C(=O)N1CCC[C@@H](c2nc(-c3ccc(Oc4ccccc4)cc3)c3c(N)nccn23)C1)N1CCN2C(=O)CC[C@H]2C1 [Compound 64, 2-((R)-3-(8-amino-1-(4-phenoxyphenyl)imidazo[1,5-a]pyrazin-3-yl)piperidine-1-carbonyl)-4-methyl-4-((S)-6-oxohexahydropyrrolo[1,2-a]pyrazin-2(1H)-yl)pent-2-enenitrile] | 0.8 |
| CC(C)(C=C(C#N)C(=O)N1CCC[C@H]1Cn1nc(-c2ccc(C(=O)Nc3ccccn3)cc2)c2c(N)nccc21)N1CCOCC1 [Compound 21, (S)-4-(4-amino-1-((1-(2-cyano-4-methyl-4-morpholinopent-2-enoyl)pyrrolidin-2-yl)methyl)-1H-pyrazolo[4,3-c]pyridin-3-yl)-N-(pyridin-2-yl)benzamide] | 18.6 |
| CC1(C=C(C#N)C(=O)N2CCC[C@@H](n3nc(-c4ccc(Oc5ccccc5)cc4)c4c(N)nccc43)C2)CCN(C2COC2)CC1 [Compound 42, (R)-2-(3-(4-amino-3-(4-phenoxyphenyl)-1H-pyrazolo[4,3-c]pyridin-1-yl)piperidine-1-carbonyl)-3-(4-methyl-1-(oxetan-3-yl)piperidin-4-yl)acrylonitrile] | 2.6 |
| CC(C)(C=C(C#N)C(=O)N1CCC[C@@H](n2nc(-c3ccc(C(=O)Nc4ccccn4)cc3)c3c(N)nccc32)C1)N1CCN(C2COC2)CC1 [Compound 47, (R)-4-(4-amino-1-(1-(2-cyano-4-methyl-4-(4-(oxetan-3-yl)piperazin-1-yl)pent-2-enoyl)piperidin-3-yl)-1H-pyrazolo[4,3-c]pyridin-3-yl)-N-(pyridin-2-yl)benzamide] | 4.1 |
| CCN1CCN(C(C)(C)C=C(C#N)C(=O)N2CCC[C@H]2Cn2nc(-c3ccc(Oc4ccccc4)cc3F)c3c(N)nccc32)CC1=O [Compound 31, (S)-2-(2-((4-amino-3-(2-fluoro-4-phenoxyphenyl)-1H-pyrazolo[4,3-c]pyridin-1-yl)methyl)pyrrolidine-1-carbonyl)-4-(4-ethyl-3-oxopiperazin-1-yl)-4-methylpent-2-enenitrile] | 11.5 |
| CC(=O)N1CCN(C(C)(C)C=C(C#N)C(=O)N2CCC[C@@H](c3nc(-c4ccc(Oc5ccccc5)cc4F)c4c(N)nccn34)C2)CC1 [Compound 59, (R)-4-(4-acetylpiperazin-1-yl)-2-(3-(8-amino-1-(2-fluoro-4-phenoxyphenyl)imidazo[1,5-a]pyrazin-3-yl)piperidine-1-carbonyl)-4-methylpent-2-enenitrile] | 1.4 |
